Data set [1] deals with UV-damaged CAT reporter plasmid in human keratinocytes. The data set is described as follows: Repair of UV-damaged CAT reporter plasmid in keratinocytes. The data set is classed as cell-based. The settings on record: 100 μM for five days before transfection; plasmid 100 mJ/cm^2 UVB. An excerpt:
Expression of a UV-damaged reporter plasmid containing the bacterial chloramphenicol acetyltransferase (CAT) gene under the control of SV40 promoter and enhancer sequences was previously shown to detect decreased DNA repair capacity in human lymphocytes associated with aging and early-onset skin cancers. This reporter plasmid was used to measure the DNA repair capacity of normal neonatal human skin-derived fibroblasts and keratinocytes.
Keratinocytes from newborns were established as described (Stanulis-Praeger, B. M. and Gilchrest, B. A., J. Cell. Physiol. 139:116–124 (1989)) using a modification of the method of Rheinwald and Green (Gilchrest, B. A. et al., J. Invest. Dermatol. 101:666–672 (1993)). First-passage keratinocytes were maintained in a non-differentiating low Ca^2+ medium (K-Stim, Collaborative Biomedical Products, Bedford, Mass.). […] CAT enzyme activity was determined using the liquid scintillation counting protocol and components of the assay system kit. […] Protein concentration in the cell extracts was determined by the method of Bradford (Anal. Biochem. 72:248 […]). CAT activity was expressed as c.p.m./100 μg protein and is represented as percent activity of cells transfected with sham-irradiated, non-damaged, plasmid.

Data set [2] has as its system Normal human neonatal keratinocyte cells. As to the kind of experiment: Cell yield of normal keratinocytes. The data set is classed as cell-based. The settings on record: 100 μM. The procedure:
Normal human neonatal keratinocyte cells were cultured as described above in Example 1 for SCC12F cells, and treated with either 100 μM T2 or diluent as a control. Cells were harvested for cell counts. The cell yield in cultures treated with T2 was reduced by 63% compared to that of paired control cultures after three days (FIG. 5).

The subject of data set [3] is p53, E2F1. As to the kind of experiment: Western analysis of p53 and E2F1 in Jurkat cells. The data set is classed as cell-based, human. The note with it: by 24 hours. The procedure: Oligonucleotides homologous to the telomere overhang repeat sequence (TTAGGG; SEQ ID NO:11), sequence (11mer-1: pGTTAGGGTTAG; SEQ ID NO: 5), complementary to this sequence (11mer-2: pCTAACCCTAAC; SEQ ID NO: 9) and unrelated to the telomere sequence (11mer-3: pGATCGATCGAT; SEQ ID NO: 10) were added to cultures of Jurkat cells, a line of human T cells, one of the cell types reported to undergo apoptosis in response to telomere disruption. Within 48 hours, 50% of the cells treated with 40 μM of SEQ ID NO: 5 had accumulated in the S phase, compared to 25–30% for control cells (p<0.0003, non-paired t-test; see FIGS. 19A–19D), and by 72 hours, 13% of these cells were apoptotic as determined by a sub-G0/G1 DNA content, compared to 2–3% of controls (p<0.007, non-paired t-test; see FIGS. 19E–19H). At 96 hours, 20±3% of the 11mer-1 treated cells were apoptotic compared with 3–5% of controls (p<0.0001, non-paired t-test). […] The fluorescence intensity of the cells was the same after all treatments at 4 hours and 24 hours.
Cells were plated at a density of 180,000 cells/ml in RPMI 1640 medium supplemented with 3% FBS. […] TUNEL-positive cells were detected by FACS analysis and confocal microscopy. […] Uptake of the oligonucleotides was assessed in 5–10 μm sections with a Carl Zeiss LSM 510 confocal laser microscope. […] Fluorescence was measured on the FL-1 channel. […]

Oligonucleotides are written 5' to 3', each unit as a sugar letter and its base; * is a phosphorothioate linkage, no mark a phosphodiester; rarer units and linkages stand in square brackets, end groups in braces. Plain capitals give the bases only. d = 2'-deoxy (DNA); {P} = phosphate

As for thymidine dinucleotide [pTpT], in data set [1], the “CAT activity relative to sham-irradiated transfected controls” value is reported as “more than 50%”. The “cell yield reduced compared to paired control cultures” value in data set [2] (after three days) was 63%. Besides, in data set [2] (three days (control: one population doubling)), the number of cells result is “remained the same”.
For “pGTTAGGGTTAG (DNA {P}-dGdTdTdAdGdGdGdTdTdAdG) [SEQ ID NO: 5]”, in data set [3], the E2F1 level result was “concomitant increase in the level of the E2F1 transcription factor” and the p53 level result is recorded as “an increase in p53”.

Values taken from patent US7033829B2, “Method to inhibit cell growth using oligonucleotides” (Trustees of Boston University, priority 2000, dated 2006).
